According to the NIST ThermoML archive (doi:10.1016/j.fluid.2015.09.030):
Numbers after ± are expanded uncertainties.

Details: Liquid, Ebulliometric method (Recirculating still)

Compound: CCCCCCCCCC [decane]
- vapor or sublimation pressure (447.46 K): 101.33 ± 0.46 kPa

Compound: Cc1ccc(C)s1 [2,5-dimethylthiophene]
- vapor or sublimation pressure (409.96 K): 101.33 ± 0.46 kPa

Compound: CCc1cccs1 [2-ethylthiophene]
- vapor or sublimation pressure (407.14 K): 101.33 ± 0.46 kPa

Compound: CCO [ethanol]
- vapor or sublimation pressure (351.45 K): 101.33 ± 0.46 kPa

Compound: Cc1cc(C)cc(C)c1 [1,3,5-trimethylbenzene]
- vapor or sublimation pressure (437.83 K): 101.33 ± 0.46 kPa

Compound: c1ccccc1 [benzene]
- vapor or sublimation pressure (353.15 K): 101.33 ± 0.46 kPa
